Experimental data taken from PMC5689723, “Targeting aggressive prostate cancer-associated CD44v6 using phage display selected peptides” (Oncotarget, 2017).
Like-named read-outs stand apart in the source and are kept apart here. Ends that are not written are not given here. Peptide text beside a SMILES is read from it. * marks the point of attachment. Biotin = O=C1N[C@H]2[C@H](CS[C@H]2CCCCC(=O)*)N1

Columns and labels:
[1] = test system: PC3M cells; experiment: MTT assay, PC3M cells; assay type: cell-based; conditions: Homo sapiens, PC-3M, 48 h, 5000 cells per well, triplicate, 562 nm, P< 0.05 vs v6A3, read-out: DOX IC50 of PC3M
Procedure: To determine the dose response of drug-resistant PC3M1G4 cell lines, PC3M and v6A3 cells were seeded in triplicate in 96-well plates at 5000 cells per well and incubated for 24 h. A range of concentrations (1000, 100, 10, 1, 0.1, 0.01, 0.001, 0.0001 nM) of DOX in fresh medium were added to the cells. Control cells were treated with appropriate volumes of fresh medium. After 48 h, 20 μl of MTT (3-(4,5-dimethylthiazol-2-yl)-2,5-diphenyltetrazolium bromide) (5 mg/ ml) (Sigma-Aldrich, St. Louis, MO) was added to each well, followed by incubation at 37°C in 5% CO2 for 4 h. Subsequently, 100 μl of DMSO (Sigma-Aldrich, St. Louis, MO) was added and the plate was shaken for 20 min at RT to dissolve the formazan crystals. The optical density (absorbance units) was read at a wavelength of 562 nm on a μQuant Universal Microplate Spectrophotometer (Bio-Tek Instruments, Winooski, VT). The growth inhibition curve was generated using GraphPad Prism 6.0 software (GraphPad Software Inc., San Diego, CA). Absolute IC50 values were calculated using the log inhibitor vs. response curves for nonlinear regression.

[2] = test system: SORE6-GFP^- cells; set-up: method as in PMID 22439924; conditions: treatment with doxorubicin; proportion of SORE6-GFP^+ cells increased dramatically; ref [41]; cited from earlier work
[3] = molecular target: T1, recombinant CD44v6-Fc (Homo sapiens, UniProt P16070, DEL223-384/DEL429-575); experiment: Peptide-Protein ELISA, recombinant CD44v6-Fc; assay type: binding; conditions: 2 h at RT, 490 nm; for Kd: biotinylated peptide, CD44v6-Fc coated at 1 μg/ml, pH 9.6, 0.5% BSA in PBST, HRP-streptavidin, nonlinear regression, GraphPad Prism 6.0; for binding to recombinant CD44v6-Fc (in words): biotinylated synthetic peptides, various concentrations, Figure 2C, 2D
T1 construct: the ECD of CD44 and CD44v6 protein were expressed as Fc-tagged proteins; made in house; host or cells: CHO-K1 cells, purified by protein A chromatography
T1 sequence (P16070 with tags, fused parts or gaps isoform P16070-7 DEL223-384/DEL429-575 limits assumed): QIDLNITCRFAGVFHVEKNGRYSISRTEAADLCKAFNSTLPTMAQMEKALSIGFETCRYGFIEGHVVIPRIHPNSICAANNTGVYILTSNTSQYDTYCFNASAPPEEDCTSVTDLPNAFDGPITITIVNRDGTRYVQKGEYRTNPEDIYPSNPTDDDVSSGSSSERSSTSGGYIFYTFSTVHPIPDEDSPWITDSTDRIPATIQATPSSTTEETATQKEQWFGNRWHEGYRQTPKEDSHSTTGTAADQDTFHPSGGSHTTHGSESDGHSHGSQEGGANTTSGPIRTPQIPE
Source text: Figure 2 Characterization of peptide binding to recombinant CD44v6 (A) Schematic of recombinant CD44v6-Fc and CD44-Fc expression construct. The number of constant exons (1-5 and 15-17) are marked. (B) SDS-PAGE analysis and immunoblotting of purified CD44v6-Fc and CD44-Fc (M, BioRad precision plus all blue prestained protein standard; lane 1, CD44v6-Fc; lane 2, CD44-Fc). For SDS-PAGE analysis, the purified proteins were detected by coomassie blue staining. For immunoblotting, the mouse anti-human Fc Ab or mouse anti-human v6 region specific mAb VFF18 was used as the primary Ab and HRP conjugated goat anti-mouse Ab was used as the secondary Ab. (C) ELISA analysis of the dose dependent recombinant CD44v6-Fc binding ability of four biotinylated peptides. […] The maximal ELISA absorbance value of PFT binding to CD44v6-Fc was used to normalize the binding signal of individual peptides. The specific binding curve was generated using GraphPad Prism 6.0 software and absolute Kd values were calculated using nonlinear regression. (D) The specificity of PFT binding to recombinant CD44v6-Fc. Different concentrations of PFT and its two scrambled peptide versions were incubated with immobilized CD44v6-Fc or CD44-Fc, respectively for ELISA analyses. The maximal ELISA absorbance value of PFT binding to CD44v6-Fc was used to normalize the binding signal of individual peptides. The specific binding curve was generated using GraphPad Prism 6.0 software.
An ELISA was performed to analyze the binding of synthesized biotinylated peptides to recombinant CD44-Fc or CD44v6-Fc. Briefly, 100 μl of recombinant protein at 1 μg/ml in 0.05 M carbonate/bicarbonate coating buffer (pH 9.6) was added to each well of a 96-well microtiter plate and coated for 24 h at 4°C. The plates were blocked with 1% BSA in PBST buffer (0.05% Tween 20 in PBS) and then incubated with 100 μl of peptides or antibodies at various concentrations in 0.5% BSA in PBST for 2 h at RT. After washing extensively for five times with PBST buffer, the plates were incubated with 100 μl of HRP-conjugated streptavidin (1:2000 diluted with 0.5% BSA in PBST buffer) for 1 h at RT. After washing five times with PBST buffer, the Sigma fast O-phenylenediamine dihydrochloride tablets (Sigma-Aldrich, St. Louis, MO) were used as substrates and the absorbance was measured at 490 nm using an endpoint assay on a μQuant Universal Microplate Spectrophotometer (Bio-Tek Instruments, Winooski, VT).
For binding analysis, the ECD of CD44 and CD44v6 protein were expressed as Fc-tagged proteins (Figure 2A). Exon numbering was performed according to the study of Screaton et al. The ECD of CD44 was engineered as an N-terminal constant sequence (exons 1–5) followed by a nonvariable stretch at the C-terminus (exons 15–17) (Figure 2A). […]

[4] = test system: v6 region peptide (KEQWFGNRWHEGYR) of CD44v6; experiment: Peptide-Peptide ELISA, v6 region peptide; assay type: binding, human; conditions: biotinylated peptides 10 μM, v6 and control peptides 2 μM on streptavidin plate; 25 mM Tris pH 7.2, 150 mM NaCl, 0.1% BSA, 0.05% Tween-20; 2 h at RT; 490 nm; Figure 1D
[5] = test system: Met signaling; conditions: v6 peptide derivative; ref [36]; cited from earlier work
[6] = test system: CD44v6; experiment: Immunohistofluorescence, human PCa tissue microarrays; conditions: T3N2M1 (grade III) TMA sample; 50 μM peptide; Figure 10C
[7] = test system: VFF18; conditions: amino acids 19-29 of the v6 domain; ref [55]; cited from earlier work
Source text: Affinity selection of phage displaying peptides typically involves passing the phage library over desired target molecules, such as protein biomarkers of cancer. In this study, we aimed to obtain peptides specific to the v6 region of human CD44v6, a putative aggressive cancer and/or CSC biomarker. However, the v6 region contains only 45 amino acids while the CD44v6-ECD consists of 290 amino acids. […] VFF18 is a murine mAb gene ...

[8] = molecular target: CD44v6-Fc ECD (exons 1-5, v6 exon 10, exons 15-17) (Homo sapiens), P16070; experiment: ELISA; conditions: N-terminal biotin on peptide, Fc fusion of CD44v6
Sequence of CD44v6-Fc ECD (exons 1-5, v6 exon 10, exons 15-17) (Homo sapiens), P16070 (P16070 whole entry, looked up, change not shown, the tested form may be a part): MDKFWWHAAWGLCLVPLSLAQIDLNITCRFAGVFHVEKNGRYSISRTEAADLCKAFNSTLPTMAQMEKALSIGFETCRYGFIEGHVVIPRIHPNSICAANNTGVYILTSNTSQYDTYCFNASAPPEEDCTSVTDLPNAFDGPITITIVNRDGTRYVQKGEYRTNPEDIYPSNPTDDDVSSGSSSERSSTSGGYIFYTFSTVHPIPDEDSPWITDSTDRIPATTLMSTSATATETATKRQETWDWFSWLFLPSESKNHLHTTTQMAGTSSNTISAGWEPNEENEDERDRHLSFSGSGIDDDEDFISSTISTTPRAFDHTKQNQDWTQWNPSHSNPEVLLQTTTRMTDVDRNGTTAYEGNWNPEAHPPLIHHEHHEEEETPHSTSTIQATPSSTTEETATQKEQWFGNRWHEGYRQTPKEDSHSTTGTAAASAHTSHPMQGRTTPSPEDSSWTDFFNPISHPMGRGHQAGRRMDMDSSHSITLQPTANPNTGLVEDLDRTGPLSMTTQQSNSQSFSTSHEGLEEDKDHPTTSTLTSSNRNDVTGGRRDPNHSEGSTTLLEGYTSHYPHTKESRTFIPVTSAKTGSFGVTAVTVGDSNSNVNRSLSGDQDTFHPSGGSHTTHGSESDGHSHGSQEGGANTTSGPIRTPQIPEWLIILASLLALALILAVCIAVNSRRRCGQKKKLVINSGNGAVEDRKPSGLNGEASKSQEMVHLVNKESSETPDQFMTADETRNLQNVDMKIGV

COc1cccc2c1C(=O)c1c(O)c3c(c(O)c1C2=O)C[C@@](O)(C(=O)CO)C[C@@H]3O[C@H]1C[C@H](N)[C@H](O)[C@H](C)O1 [DOX, doxorubicin]
IC50 [1]: 51.6 nM | cell death among SORE6-GFP^- cells on DOX treatment (in words) [2]: extensive cell death was observed among SORE6-GFP^- cells

CC(C)[C@H](NC(=O)[C@H](Cc1ccccc1)NC(=O)[C@@H]1CCCN1C(=O)[C@@H](NC(=O)[C@H](CO)NC(=O)[C@@H](NC(=O)[C@@H](NC(=O)[C@H](Cc1ccccc1)NC(=O)[C@@H]1CCCN1C(=O)CNC(=O)[C@H](CO)NC(=O)CNC(=O)CCCC[C@@H]1SC[C@@H]2NC(=O)N[C@@H]21)[C@@H](C)O)C(C)C)C(C)C)C(=O)N[C@@H](Cc1c[nH]c2ccccc12)C(=O)N[C@@H](CC(N)=O)C(=O)N[C@@H](Cc1ccccc1)C(=O)N[C@H](C(=O)N[C@@H](C)C(=O)N[C@@H](CC(=O)O)C(=O)O)[C@@H](C)O [PFT] (Biotin-GSGPFTVSVPFVWNFTAD-OH)
Kd ([3]; read-out: apparent affinity (equilibrium dissociation constant, Kd) to recombinant CD44v6): 743 ± 153 nM

CC(C)[C@H](NC(=O)[C@H](CO)NC(=O)[C@H](CO)NC(=O)[C@@H](NC(=O)[C@H](CCCNC(=N)N)NC(=O)[C@@H]1CCCN1C(=O)CNC(=O)[C@H](C)NC(=O)[C@H](Cc1c[nH]c2ccccc12)NC(=O)CNC(=O)[C@H](CO)NC(=O)CNC(=O)CCCC[C@@H]1SC[C@@H]2NC(=O)N[C@@H]21)C(C)C)C(=O)N[C@@H](Cc1ccc(O)cc1)C(=O)N[C@@H](Cc1ccc(O)cc1)C(=O)N[C@@H](C)C(=O)NCC(=O)N[C@@H](C)C(=O)N[C@@H](CCCNC(=N)N)C(=O)O [WAG] (Biotin-GSGWAGPRVSSVYYAGAR-OH)
Kd ([3]; read-out: apparent affinity (Kd) to recombinant CD44v6): 8670 ± 1850 nM

Biotin-GSG-SAYDRPL (Biotin-GSGSAYDRPL)
binding of synthetic peptides to v6 region peptide compared to control peptide (in words) [4]: increased binding to v6 region peptide compared to control peptide

Biotin-GSG-WSNKGYD
binding of synthetic peptides to v6 region peptide compared to control peptide (in words) [4]: increased binding to v6 region peptide compared to control peptide

KEQWFGNRWHEGYR [selection target]
inhibition of Met signaling (in words) [5]: inhibited Met signaling

VSVWFVTANFPPFTD [scr2]
binding to recombinant CD44v6-Fc (in words) [3]: negligible binding to CD44v6-Fc

VTPVFSFATPNFVDW [scr1]
binding to recombinant CD44v6-Fc (in words) [3]: negligible binding to CD44v6-Fc | staining of PCa tissue by scrambled peptide (in words) [6]: no staining

WFGNRWHEGYR [peptide corresponding to amino acids 19-29 of the v6 domain]
epitope for VFF18 binding (in words) [7]: minimum sequence required for high-affinity binding of VFF18

B1: PFT (peptide)
chain: Biotin-GSGPFTVSVPFVWNFTAD
Kd [8]: 743 nM

B2: WAG (peptide)
chain: Biotin-GSGWAGPRVSSVYYAGAR
Kd [8]: 8670 nM
